Results from patent publication US7345083B2, “Hydroisoindoline tachykinin receptor antagonists” (Merck & Co., Inc., priority 2004, dated 2008).

## C[C@@H](O[C@H]1CC[C@@H]2CN(C3=CC(=O)CC3)C[C@H]2[C@@H]1c1ccc(F)cc1)c1cc(C(F)(F)F)cc(C(F)(F)F)c1 [Example 7, 3-[(3aR,4R,5S,7aS)-5-{(1R)-1-[3,5-bis(Trifluoromethyl)phenyl]ethoxy}-4-(4-fluorophenyl)-octahydro-2H-isoindol-2-yl]cyclopent-2-en-1-one]
  melting point: 216.5 to 217.5 °C
